Experimental findings from ChEMBL document CHEMBL1782037, “Discovery and characterization of a nonphosphorylated cyclic peptide inhibitor of the peptidylprolyl isomerase, Pin1” (J Med Chem, 2011) are described below.

Calls of active or inactive are those of the source. The rule behind the calls is not given here. Positions of bridges follow the written chain, without caps; N, C: chain ends. Residues, ends and D or L forms follow the SMILES beside them.

In series [1] the target is T1, Peptidyl-prolyl cis-trans isomerase NIMA-interacting 1 (Homo sapiens, UniProt Q13526). The experiment in a line: Binding affinity to human Pin1 PPIase domain at 480 uM by NMR chemical shift perturbation method.
T1 sequence (Q13526 whole entry, the tested form may be a part): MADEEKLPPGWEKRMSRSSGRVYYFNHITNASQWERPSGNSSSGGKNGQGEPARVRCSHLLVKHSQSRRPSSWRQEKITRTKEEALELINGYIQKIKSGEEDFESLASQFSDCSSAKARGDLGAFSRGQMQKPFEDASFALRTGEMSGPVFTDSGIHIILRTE
Series [2] addresses T1, Peptidyl-prolyl cis-trans isomerase NIMA-interacting 1. The experiment in a line: Binding affinity to human Pin1 WW domain at 480 uM by NMR chemical shift perturbation method.
The target is the same in series [3]. The experiment in a line: Binding affinity to human Pin1 active site at 200 uM by NMR study.
Series [4] shares this target. The experiment in a line: Binding affinity to human Pin1 PPIase domain at 200 uM by agarose gel electrophoresis.
For series [5] the target is unchanged. The experiment in a line: Binding affinity to human Pin1 WW domain at 200 uM by agarose gel electrophoresis.
Series [6] shares this target. The series can be described thus: Inhibition of human GST-tagged-Pin1 PPIase activity using Suc-AEPF-pNA as substrate by Michaelis-Menten equation.
Series [7] shares this target. The series can be described thus: Competitive inhibition of human GST-tagged-Pin1 PPIase activity using WFYpSPR-pNA as substrate by Michaelis-Menten equation.
Series [8] is described as follows: Solubility of the compound. The series is classed as physicochemical.

Consider `CC[C@H](C)[C@@H]1NC(=O)[C@H](CCC(=O)O)NC(=O)[C@H](C(C)C)NC(=O)[C@H](CCC(=O)O)NC(=O)[C@@H]2CCCN2C(=O)[C@H](Cc2ccc(O)cc2)NC(=O)[C@H](CCCNC(=N)N)NC(=O)[C@@H](N)CSSC[C@@H](C(=O)O)NC1=O` (H-CRYPEVEIC-OH; disulfide 1-9), for which the outcome in series [1], in series [3] and in series [4] was Active. The result in series [2] and in series [5] was inactive.
The term Ki denotes a dissociation constant, usually derived from enzyme kinetics or from competition with a known ligand. Read a high Ki as lower affinity. Turning to `CC[C@H](C)[C@H](NC(=O)[C@H](CCC(=O)O)NC(=O)[C@@H](NC(=O)[C@H](CCC(=O)O)NC(=O)[C@@H]1CCCN1C(=O)[C@H](Cc1ccc(O)cc1)NC(=O)[C@H](CCCN=C(N)N)NC(=O)[C@@H](N)CS)C(C)C)C(=O)N[C@@H](CS)C(=O)O` [CRYPEVEIC] (H-CRYPEVEIC-OH), the Ki in series [6] was found to be 44000 nM.
Consider `CC[C@H](C)[C@@H]1NC(=O)[C@H](CCC(=O)O)NC(=O)[C@H](C(C)C)NC(=O)[C@H](CCC(=O)O)NC(=O)[C@@H]2CCCN2C(=O)[C@H](Cc2ccc(O)cc2)NC(=O)[C@H](CCCN=C(N)N)NC(=O)[C@@H](N)CSSC[C@@H](C(=O)O)NC1=O` [CYCLIC CRYPEVEIC] (H-CRYPEVEIC-OH; disulfide 1-9), for which the results for the Ki in series [6] and in series [7] were 520 nM and 200 nM, respectively. Moreover, in series [8], the solubility result is listed as “soluble”.
